Assay results published in patent US20230257385A1, “SALT AND SOLID FORMS OF TABERNANTHALOG” (priority 2021, published 2023).

Assays:
[1] = format: physicochemical; conditions: salt screen, Experiment 2
Procedure: Tabernanthalog (native) (50 mg, 1 wt) was charged to a solution of the relevant counter ion (1.0 mol equivalence of counter ion) in ethanol (5.0 vol, 250 μl). The mixtures were warmed to 85° C. and small aliquots of water were added until dissolution occurred (Table 212 for additional charges of solvent). The solutions were cooled and allowed to stand undisturbed under sub-ambient conditions overnight (Table 211). […] Products were isolated via centrifugation. The corresponding pellets were sub-sampled and analyzed wet by XRPD; after which, they were dried at 40° C. under reduced pressure over 20 h and reanalyzed by XRPD. […] Once the crystallization experiments were completed, salt formation was confirmed by ^1H NMR, XRPD, DSC and TGA.

[2] = Heat-up/cool down (HUCD) crystallization of the monofumarate salt (Experiment Reference 11); format: physicochemical; conditions: for XRPD (oven dried): form of product from HUCD crystallization of tabernanthalog fumarate Sample Reference 1 (Pattern #1), solvents per sample as in E1; for Observations (t = 0 @ T = 20° C.): input tabernanthalog fumarate Sample Reference 1 (Pattern #1), Solvent A/B: 11-A acetone/water, 11-B acetonitrile/water, 11-C butanol/water, 11-D tBME/methanol, 11-E DCM/methanol, 11-F ethanol/water, 11-G methyl acetate/water/methanol, 11-H 2-propanol/water, 11-1 methanol, 11-J MEK/water, 11-K 2-MeTHF/methanol, 11-L THF/water, 11-M toluene/methanol, 11-N water, 11-O dioxane/water, 11-P CPME/methan
Procedure: Separate portions of the tabernanthalog monofumarate salt (Pattern #1, Sample Reference 1, ca 75 mg, 1.0 wt.) were charged to separate vessels. The appropriate solvents (750 μl, 10.0 vol, refer to Table 106) were charged to the relevant vessels and subsequent charges of the appropriate co-solvent were made to accomplish dissolution at reflux. The solutions were cooled to 18 to 23° C. and allowed to stand undisturbed, until crystallization was judged complete. After this time the products were isolated by centrifugation, washed with recycled maturation solvent, dried under reduced pressure at 40° C. and analyzed by XRPD for evidence of alternative crystalline forms.

Compound | Flat baseline pre-melt (TGA)? [1] | Unique XRPD? [1] | XRPD (oven dried) [2] | Observations (t = 0 @ T = 20° C.) [2] | Discrete melt (DSC)? [1] | Flat baseline (DSC)? [1]
COc1ccc2c3c([nH]c2c1)CCN(C)CC3.O=C(O)[C@@H](O)[C@H](O)[C@H](O)[C@@H](O)C(=O)O [Tabernanthalog · Galactarate] | ✓ | v. Disordered | – | – | – | –
COc1ccc2c3c([nH]c2c1)CCN(C)CC3.O=C(O)/C=C/C(=O)O [Sample 11-N] | – | – | Pattern #6a | suspension | – | –
COc1ccc2c3c([nH]c2c1)CCN(C)CC3.O=C(O)CCCCC(=O)O [Tabernanthalog · Adipate] | – | ✓ | – | – | ✓ | ✓
COc1ccc2c3c([nH]c2c1)CCN(C)CC3.O=C(O)/C=C/C(=O)O [Sample 11-D] | – | – | Pattern #5 | cloudy | – | –
COc1ccc2c3c([nH]c2c1)CCN(C)CC3.O=C(O)/C=C/C(=O)O [Sample 11-G] | – | – | Pattern #1 | suspension | – | –
COc1ccc2c3c([nH]c2c1)CCN(C)CC3.O=C(O)/C=C/C(=O)O [Sample 11-M] | – | – | Pattern #6b | suspension | – | –
COc1ccc2c3c([nH]c2c1)CCN(C)CC3 [Tabernanthalog · Sorbate] | ✓ | ✓ | – | – | ✓ | ✓
COc1ccc2c3c([nH]c2c1)CCN(C)CC3.O=C(O)/C=C/C(=O)O [Sample 11-1] | – | – | Pattern #6b | suspension | – | –
COc1ccc2c3c([nH]c2c1)CCN(C)CC3.O=C(O)/C=C/C(=O)O [Sample 11-E] | – | – | Pattern #6b | suspension | – | –
COc1ccc2c3c([nH]c2c1)CCN(C)CC3.O=C(O)/C=C/C(=O)O [Sample 11-C] | – | – | Pattern #6a | suspension | – | –
COc1ccc2c3c([nH]c2c1)CCN(C)CC3.O=C[C@H](O)[C@@H](O)[C@H](O)[C@H](O)C(=O)O [Tabernanthalog · Glucuronate] | ✓ | ✓ | – | – | ✓ | ✓
